Assay results as given in article PMC5736559, “Dual blockade of the lipid kinase PIP4Ks and mitotic pathways leads to cancer-selective lethality” (Nature Communications, 2017).

How the values were obtained:
Ferrochelatase = biological target: T1, Ferrochelatase (Homo sapiens, UniProt P22830); test: MS-CETSA thermal shift in normal BJ cell lysate, […] compound (off-target hit); assay type: cell-based
T1 construct: gene FECH

PIP4K2C = PIP4K2C (Homo sapiens, UniProt Q8TBX8); test: MS-CETSA thermal shift in normal BJ cell lysate, […] compound; assay type: cell-based
Sequence of PIP4K2C (Q8TBX8 2-421): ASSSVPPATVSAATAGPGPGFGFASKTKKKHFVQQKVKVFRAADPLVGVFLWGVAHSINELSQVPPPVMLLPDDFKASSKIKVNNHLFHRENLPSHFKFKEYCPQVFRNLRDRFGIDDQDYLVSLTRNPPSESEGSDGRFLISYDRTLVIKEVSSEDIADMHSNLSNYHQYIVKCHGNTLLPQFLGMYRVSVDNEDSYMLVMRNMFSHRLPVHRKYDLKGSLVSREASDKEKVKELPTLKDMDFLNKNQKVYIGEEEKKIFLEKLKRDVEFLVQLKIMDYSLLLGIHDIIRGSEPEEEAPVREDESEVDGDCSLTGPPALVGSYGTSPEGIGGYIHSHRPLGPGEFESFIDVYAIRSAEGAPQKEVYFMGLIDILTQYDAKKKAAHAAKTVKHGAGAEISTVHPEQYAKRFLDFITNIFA

A549 = test: cells; set-up: MTT cell viability/proliferation assay, absorbance 540 minus 660 nm, GI50 by non-linear regression; conditions: Homo sapiens, A549; cancer cells, 72 h MTT
Description: (§1) Cells were plated in 96-well microplates on day 0, and a131 was added to each well on day 1 at a range of different concentrations (from 0.1 to 40 μM) in triplicate. After 3 days of culture, the number of viable cells was determined using MTT cell proliferation assays by adding thiazolyl blue tetrazolium bromide (MTT reagent, Invitrogen) at a concentration of 0.5 mg/ml to each well and incubating for 4 h at 37 °C. The medium was then removed, and the blue dye remaining in each well was dissolved in DMSO by mixing with a microplate mixer. The absorbance of each well was measured at 540 and 660 nm using a microplate reader (Benchmark plus, Bio-Rad). Optical density (OD) values were calculated by subtracting the absorbance at 660 nm from the absorbance at 540 nm. Mean OD values from control cells containing only DMSO-treated wells were set as 100% viable. […] Mean values with ± standard deviation (S.D.) are shown (n = 3). c, d Normal and transformed BJ cells were treated with a131 at 2.5 μM for 48 h. c FACS analysis using BrdU and PI double staining of the indicated cells. Percentages of BrdU-positive (S) population indicating cell cycle arrest and subG1 (<2N) population indicating cell death are shown. Representative FACS analysis shown (n = 3). d Immunoblot analysis of cleaved PARP and caspase-3 (Cas-3) indicating a131-induced apoptosis in transformed BJ cells (lanes 5, 6), but not normal counterparts (lanes 2, 3). Representative immunoblots shown (n = 3). e MTT assay of human normal and cancer cell lines treated with a131 for 72 h (n = 3). Mean concentration values for a131 to achieve 50% growth inhibition (GI50) in each cell line are plotted with ± S.D. f FACS analysis of a series of engineered BJ-derived fibroblasts treated with a131 at 5 µM for 48 h. Mean values of subG1 (<2N) population ± S.D. are shown (n > 3). g, h Normal and transformed BJ cells stably expressing GFP-histone H2B were treated with a131 at 2.5 μM for 32 h prior to fixation. g Immunofluorescence analysis with representative images (n = 3). h Quantification of cells (n > 100 per condition) with the indicated centrosome numbers. Mean values ± S.D. are shown (n = 3). i Mice bearing established tumor xenografts were treated orally (PO) or intraperitoneally (IP) twice daily with the indicated doses of a131 or its derivative b5. Tumor volumes were calculated periodically as indicated. Paclitaxel (PTX) was administered intravenously for twice every 4 days. Mean tumor volumes ± S.D. from six mice are shown. Two-way ANOVA was performed to determine statistical significance compared to vehicle control. j, k TUNEL staining (j) or immu

AGS = test: cells; set-up: MTT cell viability/proliferation assay, absorbance 540 minus 660 nm, GI50 by non-linear regression; conditions: Homo sapiens, AGS; cancer cells, 72 h MTT
Description: as §1

HCT116 = test: cells; set-up: MTT cell viability/proliferation assay, absorbance 540 minus 660 nm, GI50 by non-linear regression; conditions: Homo sapiens, HCT-116; cancer cells, 72 h MTT
Description: as §1

HCT15 = test: cells; set-up: MTT cell viability/proliferation assay, absorbance 540 minus 660 nm, GI50 by non-linear regression; conditions: Homo sapiens, HCT-15; cancer cells, 72 h MTT
Description: as §1

HGC27 = test: cells; set-up: MTT cell viability/proliferation assay, absorbance 540 minus 660 nm, GI50 by non-linear regression; conditions: Homo sapiens, HGC-27; cancer cells, 72 h MTT
Description: as §1

HT29 = test: cells; set-up: MTT cell viability/proliferation assay, absorbance 540 minus 660 nm, GI50 by non-linear regression; conditions: Homo sapiens, HT-29; cancer cells, 72 h MTT
Description: as §1

HeLa = test: cells; set-up: MTT cell viability/proliferation assay, absorbance 540 minus 660 nm, GI50 by non-linear regression; conditions: Homo sapiens, HeLa; cancer cells, 72 h MTT
Description: as §1

Huh7 = test: cells; set-up: MTT cell viability/proliferation assay, absorbance 540 minus 660 nm, GI50 by non-linear regression; conditions: Homo sapiens, Huh-7; cancer cells, 72 h MTT
Description: as §1

IM95 = test: cells; set-up: MTT cell viability/proliferation assay, absorbance 540 minus 660 nm, GI50 by non-linear regression; conditions: Homo sapiens, IM95; cancer cells, 72 h MTT
Description: as §1

MCF7 = test: cells; set-up: MTT cell viability/proliferation assay, absorbance 540 minus 660 nm, GI50 by non-linear regression; conditions: Homo sapiens, MCF7; cancer cells, 72 h MTT
Description: as §1

MDA-MB-231 = test: cells; set-up: MTT cell viability/proliferation assay, absorbance 540 minus 660 nm, GI50 by non-linear regression; conditions: Homo sapiens, MDA-MB-231; cancer cells, 72 h MTT
Description: as §1

NCC24 = test: cells; set-up: MTT cell viability/proliferation assay, absorbance 540 minus 660 nm, GI50 by non-linear regression; conditions: cancer cells, 72 h MTT
Description: as §1

NCC59 = test: cells; set-up: MTT cell viability/proliferation assay, absorbance 540 minus 660 nm, GI50 by non-linear regression; conditions: cancer cells, 72 h MTT
Description: as §1

NUGC3 = test: cells; set-up: MTT cell viability/proliferation assay, absorbance 540 minus 660 nm, GI50 by non-linear regression; conditions: Homo sapiens, NUGC-3; cancer cells, 72 h MTT
Description: as §1

SNU-16 = test: cells; set-up: MTT cell viability/proliferation assay, absorbance 540 minus 660 nm, GI50 by non-linear regression; conditions: Homo sapiens, SNU-16; cancer cells, 72 h MTT
Description: as §1

SNU1750 = test: cells; set-up: MTT cell viability/proliferation assay, absorbance 540 minus 660 nm, GI50 by non-linear regression; conditions: cancer cells, 72 h MTT
Description: as §1

SNU1 = test: cells; set-up: MTT cell viability/proliferation assay, absorbance 540 minus 660 nm, GI50 by non-linear regression; conditions: Homo sapiens, SNU1; cancer cells, 72 h MTT
Description: as §1

SNU449 = test: cells; set-up: MTT cell viability/proliferation assay, absorbance 540 minus 660 nm, GI50 by non-linear regression; conditions: Homo sapiens, SNU-449; cancer cells, 72 h MTT
Description: as §1

SNU620 = test: cells; set-up: MTT cell viability/proliferation assay, absorbance 540 minus 660 nm, GI50 by non-linear regression; conditions: SNU620; cancer cells, 72 h MTT
Description: as §1

PIP4K2A = PIP4K2A (Homo sapiens, UniProt P48426); test: ADP-Glo kinase assay with purified PIP4K2A and PI([…])P; assay type: biochemical
Sequence of PIP4K2A (P48426 2-406): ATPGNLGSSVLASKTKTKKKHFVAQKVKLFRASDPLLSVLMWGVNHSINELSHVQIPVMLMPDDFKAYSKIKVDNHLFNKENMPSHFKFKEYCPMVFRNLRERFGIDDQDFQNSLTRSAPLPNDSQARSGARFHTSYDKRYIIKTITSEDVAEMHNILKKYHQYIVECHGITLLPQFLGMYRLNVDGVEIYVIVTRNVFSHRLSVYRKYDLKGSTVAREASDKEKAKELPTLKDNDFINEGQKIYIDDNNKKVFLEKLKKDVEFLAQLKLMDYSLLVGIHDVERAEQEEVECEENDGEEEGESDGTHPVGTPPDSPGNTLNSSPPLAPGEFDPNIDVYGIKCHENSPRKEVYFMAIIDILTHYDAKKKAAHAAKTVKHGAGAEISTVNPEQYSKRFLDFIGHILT

T1 sequence (P22830 55-423): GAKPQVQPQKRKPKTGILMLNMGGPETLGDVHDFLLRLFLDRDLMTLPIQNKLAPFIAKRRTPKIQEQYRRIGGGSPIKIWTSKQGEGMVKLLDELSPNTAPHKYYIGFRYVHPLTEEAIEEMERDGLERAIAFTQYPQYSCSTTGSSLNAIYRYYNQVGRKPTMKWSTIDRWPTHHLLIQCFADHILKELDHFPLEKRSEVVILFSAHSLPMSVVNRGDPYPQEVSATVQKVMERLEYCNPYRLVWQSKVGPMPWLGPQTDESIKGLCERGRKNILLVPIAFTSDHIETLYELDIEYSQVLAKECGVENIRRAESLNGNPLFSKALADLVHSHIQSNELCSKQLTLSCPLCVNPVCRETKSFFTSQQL

## N#C/C(=C\c1cccc2cnccc12)c1c[nH]c2ccccc12 [a131]
Ferrochelatase
  MS-CETSA thermal shift in normal BJ cell lysate, 100 μM compound (off-target hit): Ferrochelatase in a131 and coproporphyrinogen-III oxidase in a166 were identified as prominent hits
PIP4K2C
  MS-CETSA thermal shift in normal BJ cell lysate, 100 μM compound: two out of the three family members (PIP4K2A and 2C) in a131
A549
  GI50: 1970 nM
AGS
  GI50: 1130 nM
HCT116
  GI50: 1840 nM
HCT15
  GI50: 545 nM
HGC27
  GI50: 1170 nM
HT29
  GI50: 915 nM
HeLa
  GI50: 1440 nM
Huh7
  GI50: 1180 nM
IM95
  GI50: 1040 nM
MCF7
  GI50: 1240 nM
MDA-MB-231
  GI50: 1140 nM
NCC24
  GI50: 1230 nM
NCC59
  GI50: 944 nM
NUGC3
  GI50: 1040 nM
SNU-16
  GI50: 982 nM
SNU1750
  GI50: 747 nM
SNU1
  GI50: 919 nM
SNU449
  GI50: 2270 nM
SNU620
  GI50: 982 nM

## COc1cc(/C=C(\C#N)C(=O)c2ccc(O)c(O)c2)cc(I)c1O [I-OMe-AG-538]
PIP4K2A
  IC50: 2100 nM
